# Experiments:
# [1] = biological target: human DNA ligase I (Homo sapiens, UniProt P18858); test: nick-sealing DNA ligase assay (gel electrophoresis), DNA ligase I; format: biochemical; conditions: ATP 10 μM, DNA substrate 50 nM, human DNA ligase I 0.5 nM; for IC50: read-out: IC50 against human DNA ligase I (converted)
# Method: In this study, a standard nick-sealing assay was used to identify potential human DNA ligase inhibitors from representative flavonoids. […] Selected flavonoids with the resorcinol moiety in their A rings were tested as potential DNA ligase inhibitors. Epigallocatechin gallate (EGCG) is also a flavonoid found in plants, herbs, fruits, and green tea. Rutin is a flavonoid glycoside combining the flavonol quercetin and the disaccharide rutinose found in a wide variety of plants, including citrus. Quercetin is a plant flavonoid found in many fruits, vegetables, and other foods.
# Figure 3 The effects of selected flavonoids on human DNA ligase I activity. DNA ligase assays were performed in reaction mixtures in the presence of ATP (10 μM), DNA substrate (50 nM), and human DNA ligase I (0.5 nM) as previously described.
# Figure 4 The effects of cyaniding and rosinidin on human DNA ligase I activity. DNA ligase assays were performed in reaction mixtures in the presence of ATP (10 μM), DNA substrate (50 nM), and human DNA ligase I (0.5 nM) as previously described.
# (§1) A 39 base pair nicked duplex was constructed and used as a substrate for the ligase reaction. In brief, the first 19 base pair oligonucleotide (5′-CGTAAAACGACGGCCAGTG-3′) and the second 20 base pair oligonucleotide (5′-[…]-3′) labeled with radioactive ^32P were annealed to the complementary 39 base pair oligonucleotide (5′-[…]-3′) to construct a 39 base pair nicked duplex as previously described. The resulting nicked duplex DNA was purified via 8% nondenaturing polyacrylamide gel electrophoresis.
# (§2) DNA ligase I activity was routinely assayed according to a modified procedure described previously by determining the ligation of two oligonucleotides, which are hybridized to a complementary 39-mer oligonucleotide. Ligation of 5′-[^32P] end-labeled 20-mer oligonucleotide to the unlabeled 19-mer oligonucleotide was analyzed via polyacrylamide gel electrophoresis in the presence of 8 M urea. The assays were performed at least twice, and representative data are shown in this paper.
# [2] = test system: γH2AX protein; test: γH2AX protein level in Caco-2 cells (Western blot); format: cell-based, human; conditions: 48 h, versus solvent control
# Excerpt: (§3) Some flavonoids are known to be cytotoxic to different types of human cancer cell lines. […] Phase contrast views reveal that rutin-treated cells are relatively thin and shrunken, consistent with the reduced cellular densities commonly observed in cultures exposed to cytotoxic agents (Figure 7A). […] The γH2AX is a sensitive and selective marker for DSBs, as phosphorylation of H2AX (γH2AX) is increased at such breakage sites. […] Phase contrast micrographs of Caco-2 cells treated with various concentrations of rutin for 48 h. Photographs taken at 10× magnification: (A) increased expressions of γH2AX protein in Caco-2 cells incubated with rutin for 48 h, compared with corresponding solvent control group, as measured via Western blot (B).
# [3] = biological target: T1, human DNA ligase III (Homo sapiens, UniProt P49916); test: nick-sealing DNA ligase assay, DNA ligase III; format: biochemical; conditions: ATP 10 μM, DNA substrate 50 nM; read-out: IC50 against human DNA ligase III (converted)
# T1 sequence (P49916 43-1009): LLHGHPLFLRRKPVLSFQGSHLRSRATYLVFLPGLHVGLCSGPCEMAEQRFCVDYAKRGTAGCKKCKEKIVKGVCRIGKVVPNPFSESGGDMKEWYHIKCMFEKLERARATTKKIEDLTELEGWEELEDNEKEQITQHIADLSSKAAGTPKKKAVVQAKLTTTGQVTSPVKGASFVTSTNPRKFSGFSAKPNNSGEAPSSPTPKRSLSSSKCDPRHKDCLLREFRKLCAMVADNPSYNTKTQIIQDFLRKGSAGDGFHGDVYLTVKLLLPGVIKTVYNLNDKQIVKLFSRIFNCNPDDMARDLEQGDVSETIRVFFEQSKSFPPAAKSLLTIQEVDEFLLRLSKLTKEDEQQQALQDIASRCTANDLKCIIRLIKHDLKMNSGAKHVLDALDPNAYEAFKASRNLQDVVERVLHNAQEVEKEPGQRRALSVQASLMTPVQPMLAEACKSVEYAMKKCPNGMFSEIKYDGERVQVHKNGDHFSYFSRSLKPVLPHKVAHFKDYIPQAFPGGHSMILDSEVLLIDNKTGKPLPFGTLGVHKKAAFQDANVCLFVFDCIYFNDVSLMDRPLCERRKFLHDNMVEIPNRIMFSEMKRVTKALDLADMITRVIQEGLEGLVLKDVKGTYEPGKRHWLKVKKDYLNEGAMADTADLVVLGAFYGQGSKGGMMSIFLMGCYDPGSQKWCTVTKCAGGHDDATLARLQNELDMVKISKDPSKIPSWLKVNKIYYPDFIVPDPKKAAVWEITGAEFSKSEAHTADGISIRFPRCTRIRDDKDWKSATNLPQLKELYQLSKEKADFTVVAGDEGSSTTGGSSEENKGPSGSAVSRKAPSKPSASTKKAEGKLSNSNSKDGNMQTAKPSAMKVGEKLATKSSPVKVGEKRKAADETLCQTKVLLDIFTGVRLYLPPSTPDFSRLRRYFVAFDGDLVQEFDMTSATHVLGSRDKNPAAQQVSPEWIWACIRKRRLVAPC
# Method: (§4) To validate the results from the molecular modeling studies, we also tested the effects of rutin on human DNA ligase III and IV activity.
# (§5) Figure 6 The effects of rutin on human DNA ligases III and IV activities. DNA ligase assays were performed in reaction mixtures in the presence of ATP (10 μM), DNA substrate (50 nM), and human DNA ligase I (0.5 nM) as previously described.
# as §1, §2
# [4] = test system: Caco-2 cells; test: Caco-2 cell growth and morphology (phase contrast microscopy); format: cell-based, human
# Excerpt: as §3, with “(B). The human intestinal Caco-2 cells were grown at 37 °C and 5% CO2 in a humidified atmosphere, and treated and untreated control cells were examined using an inverted phase-contrast microscope (Fisher Scientific Inverted Phase Contrast Microscope EQ-006, Pittsburgh, PA, USA) to assess cell shape and morphology.” for “(B).”
# [5] = biological target: T2, human DNA ligase IV (Homo sapiens, UniProt P49917); test: nick-sealing DNA ligase assay, DNA ligase IV; format: biochemical; conditions: ATP 10 μM, DNA substrate 50 nM; read-out: IC50 against human DNA ligase IV (converted)
# T2 sequence (P49917 1-911): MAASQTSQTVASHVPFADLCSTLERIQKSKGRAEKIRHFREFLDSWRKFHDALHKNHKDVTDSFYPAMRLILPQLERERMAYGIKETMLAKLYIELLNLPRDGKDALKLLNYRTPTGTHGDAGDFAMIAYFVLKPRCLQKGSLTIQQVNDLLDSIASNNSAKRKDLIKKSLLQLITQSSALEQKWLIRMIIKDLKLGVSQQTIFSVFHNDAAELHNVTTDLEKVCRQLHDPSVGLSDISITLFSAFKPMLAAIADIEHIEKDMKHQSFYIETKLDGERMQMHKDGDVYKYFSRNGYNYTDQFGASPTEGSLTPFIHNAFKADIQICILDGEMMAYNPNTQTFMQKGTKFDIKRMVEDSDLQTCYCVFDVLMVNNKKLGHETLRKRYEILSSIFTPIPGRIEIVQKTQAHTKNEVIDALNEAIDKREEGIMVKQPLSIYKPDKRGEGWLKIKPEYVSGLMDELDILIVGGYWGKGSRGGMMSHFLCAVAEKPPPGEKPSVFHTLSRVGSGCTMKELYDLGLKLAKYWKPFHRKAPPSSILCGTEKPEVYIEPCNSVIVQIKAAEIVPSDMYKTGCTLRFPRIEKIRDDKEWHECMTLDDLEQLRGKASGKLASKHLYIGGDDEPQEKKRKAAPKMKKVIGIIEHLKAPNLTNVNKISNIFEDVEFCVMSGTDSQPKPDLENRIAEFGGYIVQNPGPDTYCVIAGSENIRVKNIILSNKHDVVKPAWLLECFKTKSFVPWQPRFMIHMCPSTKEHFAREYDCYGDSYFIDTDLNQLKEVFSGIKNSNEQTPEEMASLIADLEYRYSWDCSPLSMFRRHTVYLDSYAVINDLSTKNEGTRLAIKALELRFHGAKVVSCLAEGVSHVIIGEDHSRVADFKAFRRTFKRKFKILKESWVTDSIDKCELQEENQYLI
# Method: as §4, §5, §1, §2
# human DNA ligase I, sequence (P18858 whole entry): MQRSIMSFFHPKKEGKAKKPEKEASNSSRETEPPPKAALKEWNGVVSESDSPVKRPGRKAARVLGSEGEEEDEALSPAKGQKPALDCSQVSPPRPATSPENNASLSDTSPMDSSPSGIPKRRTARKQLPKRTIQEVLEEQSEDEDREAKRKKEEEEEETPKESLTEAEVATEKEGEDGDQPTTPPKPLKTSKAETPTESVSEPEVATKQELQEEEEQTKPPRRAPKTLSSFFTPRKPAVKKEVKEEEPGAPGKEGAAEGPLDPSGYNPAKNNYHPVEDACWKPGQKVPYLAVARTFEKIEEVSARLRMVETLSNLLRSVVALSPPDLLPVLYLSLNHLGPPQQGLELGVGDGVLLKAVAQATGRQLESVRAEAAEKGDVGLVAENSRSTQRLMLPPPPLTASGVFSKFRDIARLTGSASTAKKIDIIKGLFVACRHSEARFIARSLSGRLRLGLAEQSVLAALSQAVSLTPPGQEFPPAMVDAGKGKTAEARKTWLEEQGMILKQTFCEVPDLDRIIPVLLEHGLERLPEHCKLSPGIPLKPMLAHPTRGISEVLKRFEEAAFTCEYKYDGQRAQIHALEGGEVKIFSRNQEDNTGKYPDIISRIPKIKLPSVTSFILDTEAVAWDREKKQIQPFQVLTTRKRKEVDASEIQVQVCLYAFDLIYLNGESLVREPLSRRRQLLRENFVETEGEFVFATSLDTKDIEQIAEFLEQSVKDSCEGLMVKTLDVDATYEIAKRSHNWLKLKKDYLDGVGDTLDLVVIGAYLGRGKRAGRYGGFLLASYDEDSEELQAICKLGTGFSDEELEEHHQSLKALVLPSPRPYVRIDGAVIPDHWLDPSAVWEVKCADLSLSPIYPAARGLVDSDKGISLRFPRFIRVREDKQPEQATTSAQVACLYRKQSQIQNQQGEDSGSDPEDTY
structure (smiles),measurement,setting,value
O=c1c(O)c(-c2ccc(O)c(O)c2)oc2cc(O)cc(O)c12 [quercetin],IC50,[1],1.65 µM
Oc1cc(O)c2c(c1)O[C@H](c1cc(O)c(O)c(O)c1)[C@H](O)C2 [epigallocatechin],IC50,[1],1.63 µM
Oc1cc(O)c2cc(O)c(-c3ccc(O)c(O)c3)[o+]c2c1 [cyanidin],IC50,[1],~3.48 µM
COc1cc(O)c2cc(O)c(-c3ccc(O)c(OC)c3)[o+]c2c1 [rosinidin],activity against human DNA ligase I,[1],little activity
C[C@@H]1O[C@@H](OC[C@H]2O[C@@H](Oc3c(-c4ccc(O)c(O)c4)oc4cc(O)cc(O)c4c3=O)[C@H](O)[C@@H](O)[C@@H]2O)[C@H](O)[C@H](O)[C@H]1O [rutin],levels of γH2AX protein,[2],increases levels of γH2AX protein in a dose-dependent manner
same,IC50,[3],0.819 µM
same,effect on cell growth,"[4]; Caco-2 cells, 48 h, concentrations lower than IC50",inhibitory effect on cell growth
same,IC50,"[4]; Homo sapiens, Caco-2",25 µg/mL
same,IC50,[5],1.64 µM
same,IC50,[1],4.91 µM

# Source: publication PMC11855144, “Role of Human DNA Ligases in Mediating Pharmacological Activities of Flavonoids” (International Journal of Molecular Sciences, 2025)
